Experimental data published in US20250145633A1, “SUBSTITUTED FURANOPYRIMIDINE COMPOUNDS AS PDE1 INHIBITORS” (Dart NeuroScience, LLC, priority 2017, published 2025).

Target: human PDE1B enzyme (Homo sapiens (Human), UniProt Q01064)
Experiment: IMAP TR-FRET PDE1B enzymatic assay
Assay type: biochemical
Details: not given
Method in brief: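 Full-length GST-tagged human PDE1B (250 pg/well) in IMAP BSA buffer with 10 U/ml calmodulin and 2.5 mM CaCl2; compound pre-incubated 5 min at room temperature, then 200 nM (final) FAM-cAMP for 30 min. IMAP binding reagent/Tb added, 1 h; TR-FRET 520/490 ratio read. IC50 from sigmoidal dose-response fit.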

SMILES | IC50 [nM]
Cc1oc2ncnc(NC3(C)CC3)c2c1C(=O)N1CCC(C#N)(c2ccccc2)CC1 [Example 274, 1-{6-Methyl-4-[(1-methylcyclopropyl)amino]furo[2,3-d]pyrimidine-5-carbonyl}-4-phenylpiperidine-4-carbonitrile] | 10 to 100

Same assay, conditions: negative log of half-maximal molar inhibitory concentration; 200 nM FAM-cAMP; values given as bins

SMILES | PDE1b (pIC50)
Cc1oc2ncnc(NC3(C)CC3)c2c1C(=O)N1CCC(c2ccc(F)cc2)CC1 [Example 60, 5-[4-(4-Fluorophenyl)piperidine-1-carbonyl]-6-methyl-N-(1-methylcyclopropyl)furo[2,3-d]pyrimidin-4-amine] | >8
Cc1oc2ncnc(NC3(C)CC3)c2c1C(=O)N1CCC(c2ccccn2)CC1 [Example 301, 6-Methyl-N-(1-methylcyclopropyl)-5-[4-(pyridin-2-yl)piperidine-1-carbonyl]furo[2,3-d]pyrimidin-4-amine] | >8
Cc1ccnc(C2CCN(C(=O)c3c(C)oc4ncnc(NC5(C)CC5)c34)CC2)n1 [Example 390, 6-Methyl-N-(1-methylcyclopropyl)-5-[4-(4-methylpyrimidin-2-yl)piperidine-1-carbonyl]furo[2,3-d]pyrimidin-4-amine] | >8
Cc1oc2ncnc(NC3(C)CC3)c2c1C(=O)NCc1ccc(F)c(C#N)c1 [Example 88, N-[(3-Cyano-4-fluorophenyl)methyl]-6-methyl-4-[(1-methylcyclopropyl)amino]furo[2,3-d]pyrimidine-5-carboxamide] | >8
Cc1oc2ncnc(NC3(C)CC3)c2c1C(=O)NC(C)(C)CCO [Example 135, N-(4-Hydroxy-2-methylbutan-2-yl)-6-methyl-4-[(1-methylcyclopropyl)amino]furo[2,3-d]pyrimidine-5-carboxamide] | >8

Same assay, conditions: negative log of half-maximal molar inhibitory concentration; 200 nM FAM-cAMP; values given as bins; read-out: PDE1b (pIC50) (converted)

SMILES | IC50 [nM]
Cc1oc2ncnc(NC3(C)CC3)c2c1C(=O)Nc1ccc2scnc2c1 [Example 263, N-(1,3-Benzothiazol-5-yl)-6-methyl-4-[(1-methylcyclopropyl)amino]furo[2,3-d]pyrimidine-5-carboxamide] | 10 to 100
Cc1oc2ncnc(NC3(C)CC3)c2c1C(=O)NCc1ccccc1Cl [Example 254, N-[(2-Chlorophenyl)methyl]-6-methyl-4-[(1-methylcyclopropyl)amino]furo[2,3-d]pyrimidine-5-carboxamide] | 10 to 100
Cc1oc2ncnc(NC3(C)CC3)c2c1C(=O)N1Cc2cnc(-c3ccc(F)cc3)nc2C1 [Example 37, 5-[2-(4-Fluorophenyl)-5H,6H,7H-pyrrolo[3,4-d]pyrimidine-6-carbonyl]-6-methyl-N-(1-methylcyclopropyl)furo[2,3-d]pyrimidin-4-amine] | 100 to 1000
Cc1oc2ncnc(NC3(C)CC3)c2c1C(=O)N1CCC(c2ccc(OCCF)cc2)C1 (stereo not drawn) [Example 797, 5-{3-[4-(2-Fluoroethoxy)phenyl]pyrrolidine-1-carbonyl}-6-methyl-N-(1-methylcyclopropyl)furo[2,3-d]pyrimidin-4-amine] | 10 to 100
Cc1nccc(N2CCC(NC(=O)c3c(C)oc4ncnc(NC5(C)CC5)c34)CC2)n1 [Example 670, 6-Methyl-4-[(1-methylcyclopropyl)amino]-N-[1-(2-methylpyrimidin-4-yl)piperidin-4-yl]furo[2,3-d]pyrimidine-5-carboxamide] | 100 to 1000
Cc1oc2ncnc(NC3(C)CC3)c2c1C(=O)N1CCn2cc(C(F)(F)F)nc2C1 [Example 623, 6-Methyl-N-(1-methylcyclopropyl)-5-[2-(trifluoromethyl)-5H,6H,7H,8H-imidazo[1,2-a]pyrazine-7-carbonyl]furo[2,3-d]pyrimidin-4-amine] | 10 to 100
Cc1nc(C)n2c1CN(C(=O)c1c(C)oc3ncnc(NC4(C)CC4)c13)CC2 [Example 814, 5-{1,3-Dimethyl-5H,6H,7H,8H-imidazo[1,5-a]pyrazine-7-carbonyl}-6-methyl-N-(1-methylcyclopropyl)furo[2,3-d]pyrimidin-4-amine] | 100 to 1000
Cc1oc2ncnc(NC3(C)CC3)c2c1C(=O)N1CCn2c(C(F)(F)F)nc(C3CCOCC3)c2C1 [Example 638, 6-Methyl-N-(1-methylcyclopropyl)-5-[1-(oxan-4-yl)-3-(trifluoromethyl)-5H,6H,7H,8H-imidazo[1,5-a]pyrazine-7-carbonyl]furo[2,3-d]pyrimidin-4-amine] | 100 to 1000
Cc1nc(NC(=O)c2c(C)oc3ncnc(NC4(C)CC4)c23)sc1C [Example 433, N-(Dimethyl-1,3-thiazol-2-yl)-6-methyl-4-[(1-methylcyclopropyl)amino]furo[2,3-d]pyrimidine-5-carboxamide] | 10 to 100
Cc1oc2ncnc(NC3(C)CC3)c2c1C(=O)N(C)Cc1nc2ccc(F)cc2[nH]1 [Example 575, N-[(6-Fluoro-1H-1,3-benzodiazol-2-yl)methyl]-N,6-dimethyl-4-[(1-methylcyclopropyl)amino]furo[2,3-d]pyrimidine-5-carboxamide] | 100 to 1000
CCOc1ccc(CNC(=O)c2c(C)oc3ncnc(NC4(C)CC4)c23)cc1OC [Example 509, N-[(4-Ethoxy-3-methoxyphenyl)methyl]-6-methyl-4-[(1-methylcyclopropyl)amino]furo[2,3-d]pyrimidine-5-carboxamide] | 10 to 100
Cc1oc2ncnc(NC3(C)CC3)c2c1C(=O)NCCCn1ccnc1 [Example 220, N-[3-(1H-Imidazol-1-yl)propyl]-6-methyl-4-[(1-methylcyclopropyl)amino]furo[2,3-d]pyrimidine-5-carboxamide] | 10 to 100
Cc1oc2ncnc(NC3(C)CC3)c2c1C(=O)N1CCCN(c2ccccc2F)CC1 [Example 156, 5-[4-(2-Fluorophenyl)-1,4-diazepane-1-carbonyl]-6-methyl-N-(1-methylcyclopropyl)furo[2,3-d]pyrimidin-4-amine] | 10 to 100
Cc1cc(C(C)NC(=O)c2c(C)oc3ncnc(NC4(C)CC4)c23)no1 (stereo not drawn) [Example 350, 6-Methyl-N-[1-(5-methyl-1,2-oxazol-3-yl)ethyl]-4-[(1-methylcyclopropyl)amino]furo[2,3-d]pyrimidine-5-carboxamide] | 10 to 100
Cc1oc2ncnc(NC3(C)CC3)c2c1C(=O)N1CCC(c2cnn(C)c2)CC1 [Example 782, 6-Methyl-5-[4-(1-methyl-1H-pyrazol-4-yl)piperidine-1-carbonyl]-N-(1-methylcyclopropyl)furo[2,3-d]pyrimidin-4-amine] | 10 to 100
COc1ccc(C(C)N(C)C(=O)c2c(C)oc3ncnc(NC4(C)CC4)c23)cc1F (stereo not drawn) [Example 510, N-[1-(3-Fluoro-4-methoxyphenyl)ethyl]-N,6-dimethyl-4-[(1-methylcyclopropyl)amino]furo[2,3-d]pyrimidine-5-carboxamide] | 10 to 100
COc1ccc(-c2cc(CNC(=O)c3c(C)oc4ncnc(NC5(C)CC5)c34)no2)cc1 [Example 326, N-{[5-(4-Methoxyphenyl)-1,2-oxazol-3-yl]methyl}-6-methyl-4-[(1-methylcyclopropyl)amino]furo[2,3-d]pyrimidine-5-carboxamide] | 10 to 100
Cc1oc2ncnc(NC3(C)CC3)c2c1C(=O)NC12CC3CC(CC(C3)C1)C2 [Example 270, N-(Adamantan-1-yl)-6-methyl-4-[(1-methylcyclopropyl)amino]furo[2,3-d]pyrimidine-5-carboxamide] | < 10
Cc1oc2ncnc(NC3(C)CC3)c2c1C(=O)N1CCC(O)(c2ccccc2)C1 (stereo not drawn) [Example 347, 1-{6-Methyl-4-[(1-methylcyclopropyl)amino]furo[2,3-d]pyrimidine-5-carbonyl}-3-phenylpyrrolidin-3-ol] | 10 to 100
Cc1oc2ncnc(NC3(C)CC3)c2c1C(=O)N1CCN(c2ncc(F)cn2)CC1 [Example 153, 5-[4-(5-Fluoropyrimidin-2-yl)piperazine-1-carbonyl]-6-methyl-N-(1-methylcyclopropyl)furo[2,3-d]pyrimidin-4-amine] | 10 to 100
Cc1ncncc1CNC(=O)c1c(C)oc2ncnc(NC3(C)CC3)c12 [Example 659, 6-Methyl-4-[(1-methylcyclopropyl)amino]-N-[(4-methylpyrimidin-5-yl)methyl]furo[2,3-d]pyrimidine-5-carboxamide] | 10 to 100
Cc1oc2ncnc(NC3(C)CC3)c2c1C(=O)NCc1ccc(N2CCOCC2)nn1 [Example 745, 6-Methyl-4-[(1-methylcyclopropyl)amino]-N-{[6-(morpholin-4-yl)pyridazin-3-yl]methyl}furo[2,3-d]pyrimidine-5-carboxamide] | 10 to 100
Cc1cc(CNC(=O)c2c(C)oc3ncnc(NC4(C)CC4)c23)ncn1 [Example 654, 6-Methyl-4-[(1-methylcyclopropyl)amino]-N-[(6-methylpyrimidin-4-yl)methyl]furo[2,3-d]pyrimidine-5-carboxamide] | 10 to 100
COc1cc(CN(C)C(=O)c2c(C)oc3ncnc(NC4(C)CC4)c23)ncn1 [Example 685, N-[(6-Methoxypyrimidin-4-yl)methyl]-N,6-dimethyl-4-[(1-methylcyclopropyl)amino]furo[2,3-d]pyrimidine-5-carboxamide] | 100 to 1000
Cc1oc2ncnc(NC3(C)CC3)c2c1C(=O)NCc1ncc(C(C)(C)C)o1 [Example 691, N-[(5-tert-Butyl-1,3-oxazol-2-yl)methyl]-6-methyl-4-[(1-methylcyclopropyl)amino]furo[2,3-d]pyrimidine-5-carboxamide] | 10 to 100
Cc1oc2ncnc(NC3(C)CC3)c2c1C(=O)NC1(c2ccc(F)cn2)CC1 [Example 281, N-[1-(5-Fluoropyridin-2-yl)cyclopropyl]-6-methyl-4-[(1-methylcyclopropyl)amino]furo[2,3-d]pyrimidine-5-carboxamide] | 10 to 100
CCN(Cc1ccc(OC)cc1)C(=O)c1c(C)oc2ncnc(NC3(C)CC3)c12 [Example 489, N-ethyl-N-[(4-Methoxyphenyl)methyl]-6-methyl-4-[(1-methylcyclopropyl)amino]furo[2,3-d]pyrimidine-5-carboxamide] | 10 to 100
